Measured values published in article PMC12751141, “Disrupting α-Synuclein–ClpP interaction restores mitochondrial function and attenuates neuropathology in Parkinson’s disease models” (Molecular Neurodegeneration, 2025).

Tests used:
[1] = test system: αSyn-PFF-inoculated primary cortical neurons; test: Immunofluorescence / western blot in αSyn-PFF-inoculated primary cortical neurons; format: cell-based, mouse; conditions: 1 µM daily
Protocol: Primary cortical neurons were isolated from normal E18 mouse cortex (sex undetermined) and cultured using complete culturing kit (cat#: KTC57ECX, TransnetYX Tissue). Briefly, 100,000 cells were seeded on poly-D-lysine coated glass coverslips (PDL15mm, TransnetYX Tissue) and cultured in NbActiv1 medium (NB1, TransnetYX Tissue). Neurons were treated with sonicated human α-Syn-PFF (SPR-322, StressMarq Biosciences) starting on post-seeding Day 5 till Day 14. Starting from post-seeding Day 9, TAT or CS2 peptide was added daily at 1µM. Neurons were fixed on Day 14 and subjected for experiments.
Cells were grown on coverslips, fixed with 4% paraformaldehyde for 20 min at room temperature, permeabilized with 0.1% Triton X-100 in PBS, and blocked with 2% normal goat serum. The cells were incubated with the indicated primary antibodies overnight at 4℃. After washing with PBS, the cells were incubated with Alexa Fluor 488/568 or 405/568 secondary antibody (1:500; Thermo Fisher Scientific) for 2 h at room temperature. The nuclei were counterstained with DAPI (1:10000; Sigma-Aldrich). Images of the staining were acquired using a Fluoview FV3000 confocal microscope (Olympus).
Fig. 5 CS2 treatment mitigates αSyn PFF induced neurotoxicity. (A) Representative images of ClpP, αSyn (Syn204; recognize human αSyn only) and NeuN staining in αSyn PFF-inoculated mouse primary cortical neurons that were pre-treated with TAT or CS2 peptide (scale bar = 30 μm). Quantification of ClpP and αSyn co-localization (n = 12–13 neurons/group, two-tailed Student’s t test, data are mean ± SEM). (B-C) Representative images of ClpP, αSyn (Syn204) and NeuN staining in αSyn PFF-inoculated mouse primary cortical neurons that were pre-treated with TAT or CS2 peptide (scale bar = 30 μm). Neurons were fixed in 4% PFA/4% sucrose/1%Triton-X100 to extract the soluble factions before immunostaining. […] (D-E) Representative images of β-tubulin (Tuj1) and pS129-αSyn (pS129) staining in αSyn PFF-inoculated mouse primary cortical neurons that were pre-treated with TAT or CS2 peptide (scale bar = 30 μm). […] (F-H) Representative images of PSD95, Synapsin1 (SYN1) and pS129 staining in αSyn PFF-inoculated mouse primary cortical neurons that were pre-treated with TAT or CS2 peptide (scale bar = 30 μm).
(A) Experimental schematic of TAT or CS2 peptide treatment in mouse primary cortical neurons inoculated with human αSyn PFF: Primary cortical neurons were isolated from E18 mouse cortex (see methods) and plated on coverslips (Day -5); neurons were treated with human αSyn PFF on Day 0 at 50 ng/ml; On Day 4, TAT or CS2 (1µM) was added daily till Day 9.
(B) Total protein lysates were harvested from primary neurons inoculated with αSyn-PFF after treatment with TAT or PBS, and subjected for western blot. Shown are the representative blots.

mThy1-hSNCA mice = test: Rotarod test in mThy1-hSNCA mice; format: in vivo, mouse; conditions: 3 mg/kg/day s.c.; age of 10-month; n = 13–15 mice/group; vs TAT
Protocol: C57BL/6 N-Tg (Thy1-SNCA)15Mjff/J (JAX: 017682) breeders (C57Bl/6NJ genetic background) were purchased from Jackson Laboratories. The mice were mated, bred, and genotyped in the animal facility of Case Western Reserve University. All mice were maintained at a 12-hour light/dark cycle (on 6 am, off 6 pm). All randomization and peptide treatments in mThy1-hSNCA mice were prepared by an experimenter not associated with the behavioral and neuropathology analysis. Only male mice were used in the study. mThy1-hSNCA transgenic mice and their age-matched WT littermates were implanted with a 28-day subcutaneous osmotic pump (Alzet, Cupertino CA, Model 2004) containing either TAT control peptide or CS2 peptide, which delivered the peptides at indicated rate (1 or 3 or 10 mg/kg/day). The pump was replaced once every four weeks. All mice were sacrificed at age of 10-month for neuropathology assessment.
Mice were trained for the accelerating test on Day 1–3. On Day 5, motor coordination was assessed in TAT or CS2 treated mThy1-hSNCA transgenic mice and their age-matched wild-type littermates at age of 10-month, by measuring latency on a rotarod in an accelerated program for 300 s. Body weights of mThy1-hSNCA mice and wild-type littermates were recorded throughout the study period.
Fig. 7 CS2 treatment is protective in mThy1-hSNCA mouse model of PD. […]

## CC(C)[C@H](NC(=O)CNC(=O)CNC(=O)CCCCCNC(=O)[C@H](CCCNC(=N)N)NC(=O)[C@H](CCCNC(=N)N)NC(=O)[C@H](CCCNC(=N)N)NC(=O)[C@H](CCC(N)=O)NC(=O)[C@H](CCCNC(=N)N)NC(=O)[C@H](CCCNC(=N)N)NC(=O)[C@H](CCCCN)NC(=O)[C@H](CCCCN)NC(=O)[C@H](CCCNC(=N)N)NC(=O)CNC(=O)[C@@H](N)Cc1ccc(O)cc1)C(=O)N[C@H](C(=O)N[C@H](C(=O)N[C@@H](C)C(=O)O)[C@@H](C)O)C(C)C [CS2, TAT-C6-GGVVTA]
[1]; five days
  ClpP expression, PFF neurons: rescued the expression of ClpP
[1]; five days, n = 12–13 neurons/group
  ClpP / αSyn co-localization: reduced this colocalization
[1]; detergent-insoluble, n = 20-30 neurons per group
  insoluble αSyn, PFF neurons: significantly reduced the insoluble ClpP and αSyn signal
[1]; detergent-insoluble, n > 30 neurons/group
  insoluble ClpP: significantly reduced the insoluble ClpP and αSyn signal
[1]; n = 3–6
  pS129-αSyn level, PFF neurons: markedly reduced the level of pS129-αSyn
[1]; n > 30 areas
  Synapsin1/PSD95 colocalization: substantially restored Synapsin1/PSD95 colocalization
mThy1-hSNCA mice
  motor coordination on rotarod (latency to fall): enhanced motor coordination
